In PubChem BioAssay (NCI):
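GI50 = concentration required for 50% inhibition of growth. Definition used: TGI = concentration required for complete inhibition of growth.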

Legend:
Test in all cases: NCI tumour cell line growth inhibition, 384-well format; in the data active = GI50 below about 0.43 µM; inactive = the rest
[1] = tested on: DU-145 prostate
[2] = tested on: SK-OV-3 ovarian
[3] = tested on: NCI/ADR-RES ovarian
[4] = tested on: NCI-H23 lung
[5] = tested on: MOLT-4 leukemia
[6] = tested on: CCRF-CEM leukemia
[7] = tested on: MDA-MB-468 breast
[8] = tested on: OVCAR-5 ovarian
[9] = tested on: HCC-2998 colon
[10] = tested on: SNB-19 CNS
[11] = tested on: PC-3 prostate
[12] = tested on: HS 578T breast
[13] = tested on: MDA-MB-435 melanoma
[14] = tested on: HOP-62 NSCLC
[15] = tested on: MALME-3M melanoma
[16] = tested on: KM12 colon
[17] = tested on: NCI-H322M lung
[18] = tested on: HCT-15 colon
[19] = tested on: ACHN renal
[20] = tested on: LOX IMVI melanoma
[21] = tested on: SF-539 CNS
[22] = tested on: A498 renal
[23] = tested on: T-47D breast
[24] = tested on: CAKI-1 renal
[25] = tested on: MCF7 breast
[26] = tested on: OVCAR-3 ovarian
[27] = tested on: SF-295 CNS
[28] = tested on: RXF 393 renal
[29] = tested on: UACC-257 melanoma
[30] = tested on: SW-620 colon
[31] = tested on: HL-60(TB) leukemia
[32] = tested on: A549 NSCLC
[33] = tested on: NCI-H226 lung
[34] = tested on: SK-MEL-28 melanoma
[35] = tested on: SF-268 CNS
[36] = tested on: COLO 205 colon
[37] = tested on: IGROV1 ovarian
[38] = tested on: SNB-75 CNS
[39] = tested on: UO-31 renal

CC(C)(C)c1cc(NC(=O)Nc2ccc(-c3cn4c(n3)sc3cc(OCCN5CCOCC5)ccc34)cc2)no1
3.17 µM: TGI [21]
2.55 µM: TGI [35]
0.571 µM: TGI [28]
3.74 µM: TGI [12]
3.54 µM: TGI [14]
> 100 µM: TGI [1] | TGI [2] | TGI [3] | TGI [4] | TGI [5] | TGI [6] | TGI [8] | TGI [9] | TGI [10] | TGI [11] | TGI [13] | TGI [15] | TGI [16] | TGI [17] | TGI [18] | TGI [19] | TGI [20] | TGI [24] | TGI [25] | TGI [26] | TGI [27] | TGI [29] | TGI [30] | TGI [31] | TGI [32] | TGI [33] | TGI [34] | TGI [36] | TGI [37] | TGI [39]
4.7 µM: TGI [38]
0.45 µM: TGI [23]
active: GI50 [5] 0.412 µM | GI50 [23] 0.094 µM | GI50 [28] 0.184 µM
8.59 µM: TGI [7]
inactive: GI50 [1] > 100 µM | GI50 [2] 1.67 µM | GI50 [3] > 100 µM | GI50 [4] 0.684 µM | GI50 [6] 0.459 µM | GI50 [7] 3.17 µM | GI50 [8] > 100 µM | GI50 [9] > 100 µM | GI50 [10] 3.37 µM | GI50 [11] 1.63 µM | GI50 [12] 0.461 µM | GI50 [13] > 100 µM | GI50 [14] 1.27 µM | GI50 [15] 1.89 µM | GI50 [16] 0.559 µM | GI50 [17] 2.99 µM | GI50 [18] 4.54 µM | GI50 [19] 7.13 µM | GI50 [20] 2.38 µM | GI50 [21] 1.08 µM | GI50 [22] 2.11 µM | GI50 [24] 3.68 µM | GI50 [25] 1.04 µM | GI50 [26] 3.03 µM | GI50 [27] 1.12 µM | GI50 [29] 4.09 µM | GI50 [30] > 100 µM | GI50 [31] > 100 µM | GI50 [32] 4.97 µM | GI50 [33] 3.82 µM | GI50 [34] 12.4 µM | GI50 [35] 0.584 µM | GI50 [36] > 100 µM | GI50 [37] 4.98 µM | GI50 [38] 1.41 µM | GI50 [39] > 100 µM
6.48 µM: TGI [22]
